Results as given in the supplement of paper PMC4862054.

Key:
Settings in all cases: incubation time: 72 h
[1] = tested on: Hs578T; assay: drug sensitivity score (DSS), CellTiter-Glo (DSS (AUC-based score)); higher = stronger drug effect (viability inhibition or cytotoxicity); extreme values may be limits of the assay
Summary of the method: (§1)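 Plates with 384 wells held compound at 5 concentrations in 10-fold steps over a 10,000-fold range specific to each compound. Breast cancer cell lines were added in 20 µl suspension and incubated 72 h, then read for CellTox Green and CellTiter-Glo signals, with each plate normalised to 0.1 % DMSO and a positive kill control. The drug sensitivity score is based on the area under the fitted dose-response curve.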

[2] = tested on: CAL-120; assay: as above
Summary of the method: as §1

[3] = tested on: BT-549; assay: as above
Summary of the method: as §1

[4] = tested on: BT-474; assay: as above
Summary of the method: as §1

[5] = tested on: MDA-MB-453; assay: as above
Summary of the method: as §1

[6] = tested on: MDA-MB-468; assay: as above
Summary of the method: as §1

[7] = tested on: HDQ-P1; assay: as above
Summary of the method: as §1

[8] = tested on: MDA-MB-436; assay: as above
Summary of the method: as §1

[9] = tested on: HCC1599; assay: as above
Summary of the method: as §1

[10] = tested on: HCC1937; assay: as above
Summary of the method: as §1

[11] = tested on: CAL-148; assay: as above
Summary of the method: as §1

[12] = tested on: HCC1143; assay: as above
Summary of the method: as §1

[13] = tested on: CAL-51; assay: as above
Summary of the method: as §1

[14] = tested on: MDA-MB-231; assay: as above
Summary of the method: as §1

[15] = tested on: SK-BR-3; assay: as above
Summary of the method: as §1

[16] = tested on: MCF-10A; assay: as above
Summary of the method: as §1

[17] = tested on: DU-4475; assay: as above
Summary of the method: as §1

[18] = tested on: CAL-85-1; assay: as above
Summary of the method: as §1

[19] = tested on: MFM-223; assay: as above
Summary of the method: as §1

[20] = tested on: Hs578T; assay: normalised viability (% of control), CellTiter-Blue; higher = more viable cells (about 100 = DMSO control)
Summary of the method: (§2)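 Compound dissolved in 5 µl medium was pre-loaded into 384-well plates, and breast cancer cell lines in 20 µl suspension were seeded on top and incubated 72 h. After adding 2.5 µl CellTiter-Blue reagent for 2 h at 37 °C, fluorescence was read at 560/590 nm. Plates were normalised to vehicle (100) and a positive kill control (0), with Z'-factor quality control. Each value is normalised viability at a single listed concentration from the series.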

[21] = tested on: CAL-120; assay: as above
Summary of the method: as §2

[22] = tested on: MDA-MB-468; assay: as above
Summary of the method: as §2

[23] = tested on: HDQ-P1; assay: as above
Summary of the method: as §2

[24] = tested on: SK-BR-3; assay: as above
Summary of the method: as §2

[25] = tested on: DU-4475; assay: as above
Summary of the method: as §2

[26] = tested on: CAL-85-1; assay: as above
Summary of the method: as §2

[27] = tested on: MFM-223; assay: as above
Summary of the method: as §2

| SMILES | drug sensitivity score [1] | drug sensitivity score [2] | drug sensitivity score [3] | drug sensitivity score [4] | drug sensitivity score [5] | drug sensitivity score [6] | drug sensitivity score [7] | drug sensitivity score [8] | drug sensitivity score [9] | drug sensitivity score [10] | drug sensitivity score [11] | drug sensitivity score [12] | drug sensitivity score [13] | drug sensitivity score [14] | drug sensitivity score [15] | drug sensitivity score [16] | drug sensitivity score [17] | drug sensitivity score [18] | drug sensitivity score [19] | normalised viability ([20]; 10 nM) [%] | normalised viability ([21]; 10 nM) [%] | normalised viability ([22]; 10 nM) [%] | normalised viability ([23]; 3 nM) [%] | normalised viability ([24]; 10 nM) [%] | normalised viability ([25]; 3 nM) [%] | normalised viability ([26]; 3 nM) [%] | normalised viability ([27]; 10 nM) [%] | normalised viability ([20]; 1 nM) [%] | normalised viability ([21]; 1 nM) [%] | normalised viability ([22]; 1 nM) [%] | normalised viability ([23]; 0.3 nM) [%] | normalised viability ([24]; 1 nM) [%] | normalised viability ([25]; 0.3 nM) [%] | normalised viability ([26]; 0.3 nM) [%] | normalised viability ([27]; 1 nM) [%] |
| --- | --- | --- | --- | --- | --- | --- | --- | --- | --- | --- | --- | --- | --- | --- | --- | --- | --- | --- | --- | --- | --- | --- | --- | --- | --- | --- | --- | --- | --- | --- | --- | --- | --- | --- | --- |
| CN1CCN(CCOc2cc(OC3CCOCC3)c3c(Nc4c(Cl)ccc5c4OCO5)ncnc3c2)CC1 [Saracatinib] | 2.32 | 2.85 | 3.75 | 6.52 | 3.51 | 3.3 | 9.63 | 0.426 | 2.67 | 3.31 | 1.84 | 2.8 | 5.08 | 8.36 | 2.63 | 13.4 | 0 | 8.75 | 0 | 102 | 87.6 | 108 | 118 | 99.6 | 96.6 | 85.5 | 104 |  |  |  |  |  |  |  |  |
| Cn1cncc1[C@@](N)(c1ccc(Cl)cc1)c1ccc2c(c1)c(-c1cccc(Cl)c1)cc(=O)n2C [Tipifarnib] | 4.5 | 3.76 | 5.49 | 4.08 | 10.3 | 7.6 | 7.3 | 10.2 | 1.29 | 6.28 | 7.28 | 0 | 11.4 | 0 | 11.9 | 2.13 | 8.37 | 1.05 | 6.28 | 88.9 | 77.6 | 96.8 | 74.6 | 91 | 99.4 | 81.4 | 84.6 |  |  |  |  |  |  |  |  |
| O=C1NC(=O)[C@@H](c2cn3c4c(cccc24)CCC3)[C@@H]1c1c[nH]c2ccccc12 [Tivantinib] | 3.41 | 0.91 | 2.94 | 0.701 | 4.48 | 2.74 | 0 | 2.69 | 0.956 | 0 | 1.93 | 2.06 | 1.38 | 1.39 | 4.51 | 1.72 | 0.839 | 3.66 | 0 |  |  |  |  |  |  |  |  | 133 | 93.4 | 112 | 104 | 105 | 107 | 90.2 | 83.8 |
| CC[C@]1(O)C[C@H]2CN(CCc3c([nH]c4ccccc34)[C@@](C(=O)OC)(c3cc4c(cc3OC)N(C=O)[C@H]3[C@@](O)(C(=O)OC)[C@H](OC(C)=O)[C@]5(CC)C=CCN6CC[C@]43[C@@H]65)C2)C1 [Vincristine] | 16.6 | 11.1 | 21.1 | 11.5 | 10.5 | 23 | 7.83 | 17.1 | 20 | 7.53 | 12.7 | 13.6 | 11.7 | 11.5 | 27.7 | 10.1 | 6.4 | 19.2 | 11.6 | 15.5 | 23.4 | 41.2 | 96.4 | 15.9 | 89 | 86.1 | 85.5 | 97.2 | 58.2 | 54.2 | 100 | 33.8 | 96.6 | 95.6 | 91.1 |
